Molecular target: human CB1 (cannabinoid receptor 1) (Homo sapiens, UniProt P21554)
Assay: CB1 receptor inhibition effect: calcium ion influx assay (Fluo-4 NW) in Chem-1 cells after 1 μM R-(+)-WIN55212-2
Type: cell-based
Settings: calcium ion influx in Chem-1 cells expressing human CB1, 1 μM R-(+)-WIN55212-2
In short: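 Chem-1 cells stably expressing human CB1 were exposed to compound (0.5% DMSO) for 10 minutes in HBSS/HEPES/probenecid, then stimulated with 1 μM R-(+)-WIN55212-2. Fluo-4 calcium flux was recorded for 80 s. Percent inhibition was calculated from max−min RFU relative to agonist-only and blank wells.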

Sequence of human CB1 (cannabinoid receptor 1) (P21554 whole entry): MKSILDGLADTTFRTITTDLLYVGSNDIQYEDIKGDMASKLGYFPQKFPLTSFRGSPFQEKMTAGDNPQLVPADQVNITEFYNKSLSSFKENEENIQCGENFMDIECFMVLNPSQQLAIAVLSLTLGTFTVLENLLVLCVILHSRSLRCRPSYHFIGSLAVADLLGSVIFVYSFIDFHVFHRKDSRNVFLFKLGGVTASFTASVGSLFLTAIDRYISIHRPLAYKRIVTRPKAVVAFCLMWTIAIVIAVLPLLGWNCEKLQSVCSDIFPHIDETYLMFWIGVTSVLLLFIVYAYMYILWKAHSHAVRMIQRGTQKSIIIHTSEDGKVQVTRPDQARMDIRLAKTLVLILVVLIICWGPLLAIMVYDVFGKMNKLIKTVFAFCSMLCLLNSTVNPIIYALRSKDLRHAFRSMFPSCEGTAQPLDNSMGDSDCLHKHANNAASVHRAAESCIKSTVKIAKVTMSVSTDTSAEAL

| IC50 [nM] | SMILES |
| --- | --- |
| 210 | CCc1cccc(-c2cc(N3CCC[C@H]3CO)nc3c(-c4ccc(OC)cc4)c(C)nn23)c1 [Example 43] |
| 77 | Cc1nn2c(-c3cccc(F)c3)cc(N3CCC[C@H]3CO)nc2c1-c1ccc(C(F)F)cc1 [Example 114] |
| 170 | CSc1ccc(-c2c(C)nn3c(-c4ccc(F)cc4)cc(N4CCC[C@H]4CO)nc23)cc1 [Example 68] |
| 210 | Cc1cccc(-c2cc(N3CCC[C@H]3CO)nc3c(-c4ccc(Cl)cc4)c(C)nn23)c1 [Example 12] |
| 5 | COCc1nn2c(-c3cccc(F)c3)cc(N3CCC[C@H]3CO)nc2c1-c1ccc(OC)cc1 [Example 223] |
| 7 | COCc1nn2c(-c3ccc(F)cc3)cc(N(C)CCO)nc2c1-c1ccc(Cl)cc1 [Example 260] |
| 46 | Cc1ccc(-c2c(C)nn3c(-c4cccc(C)c4)cc(N4CCC[C@H]4CO)nc23)cc1 [Example 156] |
| 210 | Cc1ccc(-c2c(C)nn3c(-c4ccc(F)c(Cl)c4)cc(N4CCC[C@H]4CO)nc23)cc1F [Example 185] |
| 49 | Cc1nn2c(-c3cccc(F)c3)cc(N3CCC[C@H]3CO)nc2c1-c1ccc2c(c1)OCO2 [Example 113] |
| 350 | Cc1nn2c(-c3ccc(Cl)cc3)cc(N3CCC[C@H]3CO)nc2c1-c1ccc(Cl)cc1 [Example 15] |
| 300 | CCOCc1nn2c(-c3cccc(OC)c3)cc(NCCO)nc2c1-c1ccc2c(c1)OCO2 [Example 268] |
| 240 | C=Cc1ccc(-c2c(C)nn3c(-c4cccc(F)c4)cc(N4CCC[C@H]4CO)nc23)cc1 [Example 117] |
| 350 | COc1ccc(-c2c(C)nn3c(-c4ccc(OC)cc4)cc(N4CCC[C@H]4CO)nc23)cc1 [Example 40] |
| 80 | CCOCc1nn2c(-c3cccc(F)c3)cc(N3CCC[C@H]3CO)nc2c1-c1ccc2c(c1)OCO2 [Example 214] |
| 260 | COc1ccc(-c2c(C)nn3c(-c4cccc(OC)c4)cc(N4CCC[C@H]4CO)nc23)cc1 [Example 41] |
| 45 | Cc1ccc(-c2c(C)nn3c(-c4cccc(C(F)(F)F)c4)cc(N4CCC[C@H]4CO)nc23)cc1 [Example 122] |
| 10 | CCOCc1nn2c(-c3cccc(C(F)(F)F)c3)cc(N(C)CCO)nc2c1-c1ccc(C)cc1 [Example 241] |
| 240 | Cc1nn2c(-c3ccccc3F)cc(N3CCC[C@H]3CO)nc2c1-c1ccc2c(c1)OCO2 [Example 57] |

| IC50 [nM] | SMILES |
| --- | --- |
| 160 | Cc1ccc(-c2c(C)nn3c(-c4ccc(C)cc4)cc(N4CCC[C@H]4CO)nc23)cc1 [Example 30] |
| 60 | COc1ccc(-c2c(C)nn3c(-c4cccc(F)c4)cc(N4CCC[C@H]4CO)nc23)cc1 [Example 111] |
| 220 | Cc1nn2c(-c3ccc(F)cc3)cc(N3CCC[C@H]3CO)nc2c1-c1ccc(C(F)(F)F)cc1 [Example 69] |
| 310 | Cc1nn2c(-c3ccc(F)cc3)cc(N3CCC[C@H]3CO)nc2c1-c1ccc(Cl)c(Cl)c1 [Example 96] |
| 190 | COc1ccc(-c2c(C)nn3c(-c4ccc(F)c(Cl)c4)cc(N4CCC[C@H]4CO)nc23)cc1 [Example 46] |
| 210 | CCOc1ccc(-c2c(C)nn3c(-c4cccc(C)c4)cc(N4CCC[C@H]4CO)nc23)cc1 [Example 158] |
| 250 | Cc1nn2c(-c3cccc(Cl)c3)cc(N3CCC[C@H]3CO)nc2c1-c1ccc(C(F)(F)F)cc1 [Example 173] |
| 90 | Cc1nn2c(-c3cccc(C(F)(F)F)c3)cc(N3CCC[C@H]3CO)nc2c1-c1ccc2c(c1)OCO2 [Example 125] |
| 110 | CSc1ccc(-c2c(C)nn3c(-c4cccc(C)c4)cc(N4CCC[C@H]4CO)nc23)cc1 [Example 162] |
| 130 | CCOCc1nn2c(-c3cccc(Cl)c3)cc(N(C)CCO)nc2c1-c1ccc2c(c1)OCO2 [Example 254] |
| 150 | CCOCc1nn2c(-c3cccc(Cl)c3)cc(N3CCC[C@H]3CO)nc2c1-c1ccc2c(c1)OCO2 [Example 217] |
| 22 | COCc1nn2c(-c3cccc(C#N)c3)cc(N3CCC[C@H]3CO)nc2c1-c1ccc(OC)cc1 [Example 228] |
| 28 | CCOCc1nn2c(-c3ccc(F)cc3)cc(N(C)CCO)nc2c1-c1ccc(C)cc1 [Example 239, 2-{[2-ethoxymethyl-7-(4-fluorophenyl)-3-(4-methylphenyl)-pyrazolo[1,5-a]pyrimidin-5-yl]methylamino}ethanol] |
| 39 | COc1cccc(-c2cc(N3CCC[C@H]3CO)nc3c(-c4ccc(C)cc4)c(C)nn23)c1 [Example 25, (S)-(1-(3-(4-methylphenyl)-7-(3-methoxyphenyl)-2-methylpyrazolo[1,5-a]pyrimidin-5-yl)pyrrolidin-2-yl)methanol] |
| 190 | CCOCc1nn2c(-c3cccc(C(F)(F)F)c3)cc(N(C)CCO)nc2c1-c1ccc2c(c1)OCO2 [Example 253] |
| 230 | Cc1ccc(-c2cnn3c(-c4cc(F)cc(F)c4)cc(N4CCC[C@H]4CO)nc23)cc1 [Example 273] |
| 230 | CCc1ccc(-c2c(C)nn3c(-c4ccc(F)cc4)cc(N4CCC[C@H]4CO)nc23)cc1 [Example 70] |

— patent publication US8975264B2, “Compound acting as a cannabinoid receptor-1 inhibitor” (Amorepacific Corporation, priority 2010, dated 2015)
